Measured values reported in the supplement of paper PMC11451515.

Tests used:
Details in all cases: 48 h
SEM cells [1] = test: AUC of viability dose-response curve (% viability x log10 dose units); higher = less sensitive
In short: (§1)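 Leukemia cells adapted to each medium were seeded at 500 or 1000 cells/well in 1536-well plates and dosed with library compounds in DMSO at 11 threefold doses from 47 μM to 0.79 nM for 48 h at 37°C. CellTiter-Glo One luminescence was normalised per plate to DMSO and cell-free wells, then fitted with a four-parameter log-logistic model over log10 doses. Area under the curve was taken from this fit by the trapezoidal rule, with curves above full viability scaled and curves failing quality control removed.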

NOMO1 [2] = test: as above
In short: as §1

P12-Ichikawa [3] = test: as above
In short: as §1

SEM cells [4] = test: cell viability relative to DMSO control; higher = less cytotoxic
In short: (§2)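 Viability was expressed as a per-plate percentage of DMSO wells, with cell-free wells as background. Leukemia cells (NOMO1 or SEM at 500 cells/well, P12-Ichikawa at 1000 cells/well) were adapted for at least four passages in each medium and seeded in 1536-well plates (5 μl). Library compounds in DMSO were pin-dosed over an 11-point threefold series from 47 μM to 0.79 nM, and CellTiter-Glo One luminescence was read after 48 h at 37°C.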

NOMO1 [5] = test: as above
In short: as §2

P12-Ichikawa [6] = test: as above
In short: as §2

CNC(=O)c1ccccc1Sc1ccc2c(/C=C/c3ccccn3)n[nH]c2c1
AUC of viability dose-response curve
Details | NOMO1 [2] | P12-Ichikawa [3] | SEM cells [1]
HPLM + 10% dialyzed FBS | 425 | 390 | 407
RPMI 5 mM glucose + 10% FBS | 430 | 386 | 389
RPMI 5 mM glucose + 10% dialyzed FBS | 418 | 409 | 395

cell viability [%]
Details | NOMO1 [5] | P12-Ichikawa [6] | SEM cells [4]
HPLM + 10% dialyzed FBS, 0.000781 µM | – | 116 | 119
HPLM + 10% dialyzed FBS, 0.00234 µM | – | 111 | 109
HPLM + 10% dialyzed FBS, 0.00702 µM | – | 107 | 119
HPLM + 10% dialyzed FBS, 0.0211 µM | – | 115 | 116
HPLM + 10% dialyzed FBS, 0.0632 µM | – | 112 | 120
HPLM + 10% dialyzed FBS, 0.19 µM | – | 109 | 118
HPLM + 10% dialyzed FBS, 0.569 µM | – | 106 | 114
HPLM + 10% dialyzed FBS, 1.71 µM | – | 84.5 | 115
HPLM + 10% dialyzed FBS, 5.12 µM | – | 77.8 | 73.4
HPLM + 10% dialyzed FBS, 15.4 µM | – | 17.9 | 33.5
HPLM + 10% dialyzed FBS, 46.1 µM | – | 14 | 30.5
RPMI 5 mM glucose + 10% FBS, 0.000781 µM | 108 | 117 | –
RPMI 5 mM glucose + 10% FBS, 0.00234 µM | 116 | 116 | –
RPMI 5 mM glucose + 10% FBS, 0.00702 µM | 107 | 126 | –
RPMI 5 mM glucose + 10% FBS, 0.0211 µM | 115 | 116 | –
RPMI 5 mM glucose + 10% FBS, 0.0632 µM | 118 | 110 | –
RPMI 5 mM glucose + 10% FBS, 0.19 µM | 105 | 97.2 | –
RPMI 5 mM glucose + 10% FBS, 0.569 µM | 112 | 108 | –
RPMI 5 mM glucose + 10% FBS, 1.71 µM | 91.5 | 87 | –
RPMI 5 mM glucose + 10% FBS, 5.12 µM | 74.8 | 78.9 | –
RPMI 5 mM glucose + 10% FBS, 15.4 µM | 68.8 | 28 | –
RPMI 5 mM glucose + 10% FBS, 46.1 µM | 84.2 | 21.6 | –
RPMI 5 mM glucose + 10% dialyzed FBS, 0.000781 µM | 103 | – | –
RPMI 5 mM glucose + 10% dialyzed FBS, 0.00234 µM | 119 | – | –
RPMI 5 mM glucose + 10% dialyzed FBS, 0.00702 µM | 123 | – | –
RPMI 5 mM glucose + 10% dialyzed FBS, 0.0211 µM | 109 | – | –
RPMI 5 mM glucose + 10% dialyzed FBS, 0.0632 µM | 104 | – | –
RPMI 5 mM glucose + 10% dialyzed FBS, 0.19 µM | 100 | – | –
RPMI 5 mM glucose + 10% dialyzed FBS, 0.569 µM | 107 | – | –
RPMI 5 mM glucose + 10% dialyzed FBS, 1.71 µM | 74.9 | – | –
RPMI 5 mM glucose + 10% dialyzed FBS, 5.12 µM | 74.8 | – | –
RPMI 5 mM glucose + 10% dialyzed FBS, 15.4 µM | 68.8 | – | –
RPMI 5 mM glucose + 10% dialyzed FBS, 46.1 µM | 67.9 | – | –

N[C@@H](Cc1cc(I)c(Oc2cc(I)c(O)c(I)c2)c(I)c1)C(=O)O
AUC of viability dose-response curve
Details | NOMO1 [2] | P12-Ichikawa [3] | SEM cells [1]
HPLM + 10% dialyzed FBS | 456 | 445 | 463
RPMI 5 mM glucose + 10% FBS | 473 | 460 | 454
RPMI 5 mM glucose + 10% dialyzed FBS | 429 | 468 | 438

cell viability [%]
Details | NOMO1 [5] | P12-Ichikawa [6] | SEM cells [4]
HPLM + 10% dialyzed FBS, 0.000781 µM | 119 | 118 | 102
HPLM + 10% dialyzed FBS, 0.00234 µM | 109 | 116 | 121
HPLM + 10% dialyzed FBS, 0.00702 µM | 105 | 106 | 107
HPLM + 10% dialyzed FBS, 0.0211 µM | 103 | 113 | 113
HPLM + 10% dialyzed FBS, 0.0632 µM | 111 | 113 | 78.2
HPLM + 10% dialyzed FBS, 0.19 µM | 109 | 103 | 129
HPLM + 10% dialyzed FBS, 0.569 µM | 125 | 106 | 119
HPLM + 10% dialyzed FBS, 1.71 µM | 94.5 | 109 | 120
HPLM + 10% dialyzed FBS, 5.12 µM | 112 | 106 | 117
HPLM + 10% dialyzed FBS, 15.4 µM | 104 | 101 | 93.8
HPLM + 10% dialyzed FBS, 46.1 µM | 97.4 | 98.6 | 92.2
RPMI 5 mM glucose + 10% FBS, 0.000781 µM | 92.9 | 126 | 98.2
RPMI 5 mM glucose + 10% FBS, 0.00234 µM | 105 | 120 | 105
RPMI 5 mM glucose + 10% FBS, 0.00702 µM | 107 | 121 | 103
RPMI 5 mM glucose + 10% FBS, 0.0211 µM | 100 | 113 | 106
RPMI 5 mM glucose + 10% FBS, 0.0632 µM | 101 | 123 | 59.2
RPMI 5 mM glucose + 10% FBS, 0.19 µM | 97 | 124 | 112
RPMI 5 mM glucose + 10% FBS, 0.569 µM | 108 | 122 | 115
RPMI 5 mM glucose + 10% FBS, 1.71 µM | 105 | 107 | 104
RPMI 5 mM glucose + 10% FBS, 5.12 µM | 93.6 | 112 | 94.2
RPMI 5 mM glucose + 10% FBS, 15.4 µM | 112 | 114 | 88.3
RPMI 5 mM glucose + 10% FBS, 46.1 µM | 84.8 | 104 | 84.6
RPMI 5 mM glucose + 10% dialyzed FBS, 0.000781 µM | 109 | 111 | –
RPMI 5 mM glucose + 10% dialyzed FBS, 0.00234 µM | 116 | 107 | –
RPMI 5 mM glucose + 10% dialyzed FBS, 0.00702 µM | 113 | 108 | –
RPMI 5 mM glucose + 10% dialyzed FBS, 0.0211 µM | 113 | 109 | –
RPMI 5 mM glucose + 10% dialyzed FBS, 0.0632 µM | 94.1 | 109 | –
RPMI 5 mM glucose + 10% dialyzed FBS, 0.19 µM | 95.5 | 114 | –
RPMI 5 mM glucose + 10% dialyzed FBS, 0.569 µM | 96.9 | 103 | –
RPMI 5 mM glucose + 10% dialyzed FBS, 1.71 µM | 98.9 | 111 | –
RPMI 5 mM glucose + 10% dialyzed FBS, 5.12 µM | 94 | 104 | –
RPMI 5 mM glucose + 10% dialyzed FBS, 15.4 µM | 96.8 | 103 | –
RPMI 5 mM glucose + 10% dialyzed FBS, 46.1 µM | 92.6 | 101 | –

Cc1cc(-c2ccc(CC(=O)Nc3ccc(-c4cccnc4)cc3)cc2)ccn1
AUC of viability dose-response curve
Details | NOMO1 [2] | P12-Ichikawa [3] | SEM cells [1]
HPLM + 10% dialyzed FBS | 380 | 439 | 392
RPMI 5 mM glucose + 10% FBS | 420 | 447 | 418
RPMI 5 mM glucose + 10% dialyzed FBS | 413 | 438 | 413

cell viability [%]
Details | NOMO1 [5] | P12-Ichikawa [6] | SEM cells [4]
HPLM + 10% dialyzed FBS, 0.000781 µM | – | 113 | 115
HPLM + 10% dialyzed FBS, 0.00234 µM | – | 113 | 112
HPLM + 10% dialyzed FBS, 0.00702 µM | – | 121 | 123
HPLM + 10% dialyzed FBS, 0.0211 µM | – | 115 | 118
HPLM + 10% dialyzed FBS, 0.0632 µM | – | 118 | 118
HPLM + 10% dialyzed FBS, 0.19 µM | – | 111 | 119
HPLM + 10% dialyzed FBS, 0.569 µM | – | 112 | 123
HPLM + 10% dialyzed FBS, 1.71 µM | – | 108 | 87.8
HPLM + 10% dialyzed FBS, 5.12 µM | – | 97.7 | 80.8
HPLM + 10% dialyzed FBS, 15.4 µM | – | 57.1 | 12.7
HPLM + 10% dialyzed FBS, 46.1 µM | – | 70.2 | 18.4
RPMI 5 mM glucose + 10% FBS, 0.000781 µM | 108 | 117 | 101
RPMI 5 mM glucose + 10% FBS, 0.00234 µM | 118 | 119 | 123
RPMI 5 mM glucose + 10% FBS, 0.00702 µM | 108 | 121 | 131
RPMI 5 mM glucose + 10% FBS, 0.0211 µM | 111 | 117 | 133
RPMI 5 mM glucose + 10% FBS, 0.0632 µM | 107 | 118 | 124
RPMI 5 mM glucose + 10% FBS, 0.19 µM | 110 | 132 | 129
RPMI 5 mM glucose + 10% FBS, 0.569 µM | 116 | 111 | 131
RPMI 5 mM glucose + 10% FBS, 1.71 µM | 96.4 | 106 | 112
RPMI 5 mM glucose + 10% FBS, 5.12 µM | 84.6 | 111 | 123
RPMI 5 mM glucose + 10% FBS, 15.4 µM | 54.3 | 89.9 | 24.5
RPMI 5 mM glucose + 10% FBS, 46.1 µM | 40.9 | 62.6 | 15.5
RPMI 5 mM glucose + 10% dialyzed FBS, 0.000781 µM | 119 | 112 | 113
RPMI 5 mM glucose + 10% dialyzed FBS, 0.00234 µM | 131 | 110 | 113
RPMI 5 mM glucose + 10% dialyzed FBS, 0.00702 µM | 124 | 111 | 126
RPMI 5 mM glucose + 10% dialyzed FBS, 0.0211 µM | 110 | 114 | 106
RPMI 5 mM glucose + 10% dialyzed FBS, 0.0632 µM | 134 | 119 | 110
RPMI 5 mM glucose + 10% dialyzed FBS, 0.19 µM | 103 | 108 | 124
RPMI 5 mM glucose + 10% dialyzed FBS, 0.569 µM | 106 | 104 | 128
RPMI 5 mM glucose + 10% dialyzed FBS, 1.71 µM | 110 | 106 | 112
RPMI 5 mM glucose + 10% dialyzed FBS, 5.12 µM | 91.8 | 96.3 | 104
RPMI 5 mM glucose + 10% dialyzed FBS, 15.4 µM | 55.8 | 69.1 | 21.7
RPMI 5 mM glucose + 10% dialyzed FBS, 46.1 µM | 41.7 | 55.7 | 16
